Laboratory results: patent publication US9351980B2, “Di-aspirin derivatives” (The University of Wolverhampton, priority 2010, dated 2016)

Experiments:
[1] = tested on: MAC13 tumour; assay: Tumour volume in MAC 13 tumour bearing mice; type: in vivo; conditions: MAC13 tumour bearing NMRI mice, 1 mg/kg dissolved in PBS (FIG. 7)
Method: NMRI mice were treated with MAC13 cells (5×10^6) sub cut in their flanks (Hussey H J, Bibby […]; British J. of Cancer, 73, 1187-1192, 1996), were treated with example compounds. Once the tumour was established the tumour was dissected and small fragments re-transplanted into more mice. […] The mice were monitored daily-weight, food and water consumption and tumour size was recorded using calipers. The experiment ended when the control mouse tumours started to ulcerate.

[2] = tested on: SW480 cell line; assay: MTT in vitro cytotoxicity assay on SW480 cells; type: cell-based
Method: The MTT assay was utilised with a 24 hour incubation period of cell exposure to the compound. […] Experiments were carried out in triplicate; error bars indicate standard deviation.
The carrier molecule utilised (DMSO) in these experiments to prepare stock solutions was buffered with Tris-HCl buffer pH8.0 (0.5M) to mitigate against any pH changes caused by the addition of compounds to cell culture medium. All data shown were normalised to cells exposed only to buffered carrier molecule.
The result shown is the average of three independent experiments (error bars indicate mean+/−SEM). For comparative purposes, compound toxicity is shown alongside the equivalent concentration of salicylic acid (SA) and aspirin (as tested using the MTT assay with a 72 hour incubation of SW480 cells with compound). The carrier molecule utilised in these experiments was DMSO (dimethyl sulphoxide); all data shown were normalised to cells exposed only to carrier molecule.

[3] = tested on: SW480 colon carcinoma cell line, HCT-116 colon cancer cell line, MDA-231MB breast cancer cell line; assay: MTT titration assay (cell viability, 24 hours) on colon versus breast cancer cell lines; type: cell-based
Method: In the examples, assays mentioned are standard cytotoxicity assays and cell cultures used are prepared under standard conditions. The MTT assay referred to is MTT [3-(4,5-Dimethylthiazol-2-yl)-2,5-diphenyltetrazolium-bromide] assay (Mosmann T; J Immunol Methods 65: 55-63, 1983).
In FIG. 2, the in vitro toxicity of BCS, compound 508 of table 1, was investigated in further detail by titration against the SW480 colon carcinoma cell line and the DNA mismatch repair deficient HCT-116 colon cancer cell line and the MDA-231MB breast cancer cell line again utilising the MTT assay as described previously. The concentration-effect relationship for the three different cells lines is given in FIG. 2 (error bars indicate mean+/−S.D.). All experiments were performed in triplicate. For clarity, carrier molecule (DMSO) toxicity of the equivalent concentration utilised is also shown.

[4] = human subjects given analgesic doses of aspirin; cited from earlier work
[5] = tested on: colorectal cells; conditions: previously reported; cited from earlier work

SMILES | tumour growth [1] | toxicity in comparison to aspirin ([2]; MTT assay, equivalent concentration of aspirin (FIG. 3, 48 hour incubation)) | specificity against the cell line derived from a colon cancer ([2]; SW480 versus MCF-7 and U373MG (FIG. 1), MTT) | specific toxicity to colorectal cancer cells ([3]; MTT titration, 24 hours, SW480, HCT-116 versus MDA-231MB) | selectivity for SW480 compared with MDA-231-MB cells ([3]; cell viability assay, colon carcinoma versus breast cancer-derived cell line) | salicylate levels achievable in serum [4] [mM] | toxicity to colorectal cells in vitro [5]
O=C(/C=C/C(=O)Oc1ccccc1C(=O)O)Oc1ccccc1C(=O)O [Compound 517, fumaroyldiaspirin] | decrease in tumour growth |  |  |  |  |  | 
O=C(CCC(=O)Oc1ccccc1C(=O)O)Oc1ccccc1C(=O)O [Compound 508, bis(2-carboxyphenyl) succinate] | decrease in tumour growth | more toxic in comparison to aspirin | retains a degree of specificity | specifically toxic to colorectal cancer cells | significantly more toxic to SW480 colorectal cancer cells than to MDA-231-MB cells |  | 
CC(=O)Oc1ccccc1C(=O)O [Aspirin, acetylsalicylic acid] |  |  |  |  |  | > 1 | exhibit toxicity
